The record followed here is patent publication US12286401B2, “Small molecules that sensitize HIV-1 infected cells to antibody dependent cellular cytotoxicity” (THE TRUSTEES OF THE UNIVERSITY OF PENNSYLVANIA, priority 2018, dated 2025).

Molecules are shown by their SMILES. Several values for one entry are separate records, joined by “and”; a condition that tells them apart may be missing. Equal values may be shown once.

One data set is described as follows: Solubility in PBS. The class given is physicochemical. To be noted: Yes/NO.
Data set [1] concerns HIV-1JR-FL EnvΔCT expressed at the surface of HOS cells. The data set can be described thus: Cell-based ELISA (CBE), 17b readout. The note with it: for Fold over BNM-III-170 - 17b binding (±0.05): MCG analogs 50 μM, BNM-III-170 5 μM, 2G12 and DMSO normalized; for capacity to expose the CoRBS (17b binding, CBE): compounds 50 μM, result in words. The essentials: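 HOS cells transiently expressing cytoplasmic-tail-truncated HIV-1JR-FL Env were treated 30 min at room temperature with compounds (50 μM), sCD4 ([…]) or DMSO, then 1 h with 17b antibody. Bound 17b was detected by HRP-conjugated anti-Fc chemiluminescence; values are fold over BNM-III-170 (5 μM), normalized to 2G12 and DMSO.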
For orientation: In an ELISA, binding on a coated surface is turned into a signal by an enzyme label.

Regarding `CS(=O)(=O)N1CCC[C@H](C(=O)Nc2cccc(Cl)c2)C1` [(S)-MCG-III-027-B01], the “Solubility (in PBS)” value in the data set “Solubility in PBS” is recorded as “Yes”. The “Fold over BNM-III-170 - 17b binding (±0.05)” value (from here on “Fold”) in data set [1] came to 0.10 fold.

As to `O=C(Nc1ccc(Cl)c(F)c1)C1CCCOC1` (stereo not drawn) [MCG-III-207], the “Solubility (in PBS)” value in the data set “Solubility in PBS” is “Yes”. The “Fold” value in data set [1] worked out at 0.48 fold.

`NCCNC(=O)N1CCC[C@H](C(=O)Nc2ccc(Cl)c(F)c2)C1` [(S)-MCG-IV-210]: in data set [1], the “Fold” value amounted to 0.58 fold and the “capacity to expose the CoRBS (17b binding, CBE)” value (shortened to “capacity to expose the CoRBS”) is “higher activity”.

In the case of `CS(=O)(=O)N1CCC[C@H](C(=O)Nc2ccc(F)cc2)C1` [(S)-MCG-III-027-A03], in “Solubility in PBS”, the “Solubility (in PBS)” value is reported as “Yes”. Besides, the “Fold” value in data set [1] was determined as 0.12 fold.

Take `CS(=O)(=O)N1CCC[C@H](C(=O)Nc2cccc(C(F)(F)F)c2)C1` [(S)-MCG-III-027-B04]: in the data set “Solubility in PBS”, the “Solubility (in PBS)” value is recorded as “Yes”. Further, the “Fold” value in data set [1] worked out at 0.07 fold.

For `CCOC(=O)N1CCC[C@H](C(=O)Nc2ccc(Cl)c(F)c2)C1` [(S)-MCG-III-188-A02], the “Solubility (in PBS)” value in “Solubility in PBS” was “Yes”. Besides, in data set [1], the “Fold” value amounted to 0.53 fold and the “capacity to expose the CoRBS” value is recorded as “higher activity”.

For `CS(=O)(=O)N1CCC[C@H](C(=O)Nc2ccccc2Cl)C1` [(S)-MCG-III-027-C01], the “Solubility (in PBS)” value in “Solubility in PBS” is “Yes”. Also, in data set [1], the “Fold” value is listed as 0.06 fold.

With `CCS(=O)(=O)N1CCC[C@H](C(=O)Nc2ccc(Cl)c(F)c2)C1` [(S)-MCG-III-085-C01], the “Solubility (in PBS)” value in “Solubility in PBS” is given as “Yes”. In data set [1], the “Fold” value was found to be 0.35 fold.

`CS(=O)(=O)N1CCC[C@H](C(=O)Nc2cccc(F)c2)C1` [(S)-MCG-III-027-B03]: the “Solubility (in PBS)” value in “Solubility in PBS” is listed as “Yes”. Besides, in data set [1], the “Fold” value amounted to 0.13 fold.

Take `Cn1cnc(S(=O)(=O)N2CCCC(C(=O)Nc3ccc(Cl)c(F)c3)C2)c1` (stereo not drawn) [MCG-III-157-B04]: the “Solubility (in PBS)” value in the data set “Solubility in PBS” was “Yes”. Besides, the “Fold” value in data set [1] amounted to 0.69 fold.

Turning to `Cn1cnc(S(=O)(=O)N2CCC[C@H](C(=O)Nc3ccc(Cl)c(F)c3)C2)c1` [(S)-MCG-III-116-A02], the “Fold” value in data set [1] amounted to 0.24 fold.

In the case of `COC(=O)N1CCC[C@H](C(=O)Nc2ccc(Cl)c(F)c2)C1` [(S)-MCG-III-188-A01], in “Solubility in PBS”, the “Solubility (in PBS)” value is “Yes”. In addition, in data set [1], the “Fold” value is reported as 0.50 fold and the “capacity to expose the CoRBS” value is reported as “higher activity”.

With `CCCNC(=O)N1CCC[C@H](C(=O)Nc2ccc(Cl)c(F)c2)C1` [(S)-MCG-IV-031-A05], in data set [1], the “Fold” value came out at 0.55 fold and the “capacity to expose the CoRBS” value was “higher activity”.

On to `CS(=O)(=O)N1CCC[C@H](C(=O)Nc2ccc(Cl)c(F)c2)C1` [(S)-MCG-III-027-D05], for which the “Solubility (in PBS)” value in the data set “Solubility in PBS” was “Yes”. In data set [1], the “Fold” value was 0.46 fold and 0.58 fold; the “capacity to expose the CoRBS” value is given as “enhanced the capacity”.

As to `CS(=O)(=O)N1CCC[C@H](C(=O)Nc2ccc(Br)cc2)C1` [(S)-MCG-III-027-A02], the “Solubility (in PBS)” value in the data set “Solubility in PBS” was “Yes”. Further, the “Fold” value in data set [1] was 0.36 fold.

Take `CS(=O)(=O)N1CCC[C@H](C(=O)Nc2cccc(Br)c2)C1` [(S)-MCG-III-027-B02]: the “Solubility (in PBS)” value in “Solubility in PBS” was “Yes”. For the same compound, in data set [1], the “Fold” value was 0.10 fold.

As for `COc1cccc(NC(=O)[C@H]2CCCN(S(C)(=O)=O)C2)c1` [(S)-MCG-III-027-B05], in the data set “Solubility in PBS”, the “Solubility (in PBS)” value was “Yes”. Further, the “Fold” value in data set [1] is on record as 0.06 fold.

Consider `CS(=O)(=O)N1CCC[C@H](C(=O)Nc2ccc(F)cc2F)C1` [(S)-MCG-III-027-D04], for which the “Solubility (in PBS)” value in the data set “Solubility in PBS” is “Yes”. For the same compound, the “Fold” value in data set [1] was 0.07 fold.

`O=C(Nc1ccc(Cl)c(F)c1)C1CCCN(S(=O)(=O)c2ccccc2)C1` (stereo not drawn) [MCG-III-157-B03]: the “Fold” value in data set [1] is 0.43 fold.
